These results are taken from patent publication US20060276485A1, “Substituted piperidine and piperazine derivatives as melanocortin-4 receptor modulators” (priority 2003, published 2006).

pEC50, pIC50, pKi: −log10 of the molar value. “Also recorded” adds a separate entry of the source. Read-outs that look alike come from different tables or passages of the source.

Assay [1] has as its target T1, human melanocortin-4 receptor (hMC4-R) (Homo sapiens, UniProt P32245).
T1 construct: expressed in transfected cells; host or cells: HEK293 cells
As to the kind of experiment: Membrane binding assay: competition with fluorescence labeled NDP-alpha-MSH, fluorescence polarization. As for the experimental part: A membrane binding assay is used to identify competitive inhibitors of fluorescence labeled NDP-alpha-MSH binding to HEK293 cell membrane preparations expressing human melanocortin receptors.
The test compound or unlabeled NDP-alpha-MSH is dispensed at varying concentrations to a 384 well microtiter plate. Fluorescence labeled NDP-alpha-MSH is dispensed at a single concentration, followed by addition of membrane preparations. The plate is incubated for 5 h at room temperature.
The degree of fluorescence polarization is determined with a fluorescence polarization microplate reader.
(In general: In fluorescence polarisation assays a small probe gives low polarisation when free and higher when bound to something large.)

Assay [2] addresses T1, human melanocortin-4 receptor (hMC4-R). As to the kind of experiment: Functional cellular cAMP assay in HEK293 cells, fluorescence polarization. It counts as cell-based. As for the experimental part:
A functional cellular assay, based on competition between unlabeled CAMP and a fixed quantity of fluorescence labeled CAMP for a limited number of binding sites on a CAMP specific antibody, is used to discriminate melanocortin receptor agonists from antagonists by fluorescence polarization.
HEK293 cells expressing one of the human melanocortin receptors are transferred to 384 well microtiter plates, an appropriate amount of CAMP antibody is added, followed by the addition of different concentrations of the test compound to effect cAMP production. Cells are lysed and a fluorescence labeled cAMP conjugate is dispensed. The plate is read on a fluorescence polarization microplate reader and the amount of cAMP produced as a response to a test compound is compared to the production of CAMP resulting from stimulation with NDP-alpha-MSH. […]

A short description of assay [3]: Spontaneous feeding paradigm: food intake in rats. As to conditions: for increase in cumulative food intake: compared to vehicle; for activity in the spontaneous feeding paradigm: significant increase in food intake at dose of 3 to 30 mg/kg p.o. Format: in vivo, male Wistar rats. As for the experimental part:
Food intake in rats is measured after i.p. or p.o. administration of the test compound (see e.g. Chen, A. S. et al. Transgenic Res 2000 April 9(2):145-54).
Selected Examples of the present invention were active in the rat model at 3, 10 or 30 mg/kg after i.p. and p.o. administration of the test compound, respectively, using male Wistar rats (n=4).

Assay [4] has as its target T2, melanocortin-4 receptor (Homo sapiens, UniProt P32245). The following applies: cited from earlier work; for pEC50: read-out: melanocortin-4 receptor activation EC50.
Assay [5] concerns the target T2, melanocortin-4 receptor. The following applies: J. Med. Chem. 2004, 47, 744-755; read-out: melanocortin-4 receptor binding Ki; cited from earlier work.
Setting [6] is: Bioorg. Med. Chem. Lett. 2003, 13, 3793-3796.

T2 sequence (P32245 whole entry): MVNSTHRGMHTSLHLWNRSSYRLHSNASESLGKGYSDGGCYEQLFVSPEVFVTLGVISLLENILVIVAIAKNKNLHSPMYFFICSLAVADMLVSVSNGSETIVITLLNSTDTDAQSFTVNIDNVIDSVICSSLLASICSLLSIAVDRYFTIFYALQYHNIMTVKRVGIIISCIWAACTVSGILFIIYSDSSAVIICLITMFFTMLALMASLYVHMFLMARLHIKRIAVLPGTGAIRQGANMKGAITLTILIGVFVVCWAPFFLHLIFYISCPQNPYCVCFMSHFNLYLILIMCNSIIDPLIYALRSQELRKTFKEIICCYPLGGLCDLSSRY
T1 sequence (P32245 whole entry): as above

Usually pIC50 stands for −log10 of the IC50, conventionally taken in molar units. Higher therefore signals a small IC50. In assay [1], `O=C(N[C@H](Cc1ccc(Cl)cc1)C(=O)N1CCN(c2ccccc2CN2CCCC2=O)CC1)c1cc(=O)c2ccccc2o1` [Example 182] showed a negative-log IC50 (pIC50) of 7.21. The “% activation functional assay” value is recorded as 15%@10 μM in assay [2] (at 10 μM) and “little or no activation” in assay [2] (at 10 μM, listed as example 182). For the same compound, the “increase in cumulative food intake” value in assay [3] (3 mg/kg p.o., 2 hours following administration) came to 273%; in assay [3] (3 mg/kg p.o., 4 hours following administration), 204%; in assay [3] (3 mg/kg p.o., 6 hours following administration), 156%; in assay [3] (3 mg/kg p.o., 7 hours following administration), 197%. Besides, the “activity in the spontaneous feeding paradigm” value (shortened to “activity”) in assay [3] is on record as “active”.

Regarding `O=C(N[C@H](Cc1ccc(Cl)cc1)C(=O)N1CCC(c2ccccc2CN2CCC2=O)CC1)c1cc(=O)c2ccccc2o1` [Example 178], in assay [1], the pIC50 was 6.70. Moreover, in assay [2] (relative to NDP-alpha-MSH), the “% activation functional assay” value is “does not activate; also recorded: no activation”.

In turn, `O=C(N[C@H](Cc1ccc2ccccc2c1)C(=O)N1CCC(c2ccccc2CN2CCCC2=O)CC1)c1cc(=O)c2ccccc2o1` [Example 91] gave a pIC50 in assay [1] of 6.92. Also, in assay [2] (relative to NDP-alpha-MSH), the “% activation functional assay” value is “does not activate; also recorded: no activation”.

Compound `O=C(N[C@@H](Cc1ccc(Cl)cc1)C(=O)N1CCC(c2ccccc2CN2CCCC2=O)CC1)c1cc(=O)c2ccccc2o1` [Example 1] had a pIC50 in assay [1] of 6.70. Besides, the “% activation functional assay” value in assay [2] (relative to NDP-alpha-MSH) is on record as “does not activate; also recorded: no activation”. Besides, the “increase in cumulative food intake” value in assay [3] (30 mg/kg p.o., 4 hours following administration) is 159%; in assay [3] (30 mg/kg p.o., 6 hours following administration), 131%; in assay [3] (30 mg/kg p.o., 7 hours following administration) it was 148%. The “activity” value in assay [3] is “active”.

In assay [1], `O=C(N[C@H](Cc1ccc2ccccc2c1)C(=O)N1CCN(c2ccccc2CN2CCCC2=O)CC1)c1cc(=O)c2ccccc2o1` [Example 267] showed a negative logarithm of the IC50 (pIC50) of 7.00. The “% activation functional assay” value in assay [2] (relative to NDP-alpha-MSH) is “does not activate; also recorded: no activation”.

As to `COc1ccc2oc(C(=O)N[C@@H](Cc3ccc(Cl)cc3)C(=O)N3CCC(c4ccccc4CN4CCCC4=O)CC3)cc(=O)c2c1` [Example 17], the “increase in cumulative food intake” value in assay [3] (10 mg/kg p.o., 2 hours following administration) was 3100%; in assay [3] (10 mg/kg p.o., 4 hours following administration) it was 540%. Also, the “activity” value in assay [3] is listed as “active”.

Consider `O=C(N[C@@H](Cc1ccc(Cl)cc1)C(=O)N1CCN(c2ccccc2CN2CCCC2=O)CC1)c1cc(=O)c2ccccc2o1` [Example 181], for which, in assay [1], the pIC50 was 6.11. The “% activation functional assay” value in assay [2] (relative to NDP-alpha-MSH) is “does not activate; also recorded: no activation”.

As for `O=C(N[C@@H](Cc1ccc(Cl)cc1)C(=O)N1CCC(c2ccccc2CN2CCCCC2=O)CC1)c1cc(=O)c2ccccc2o1` [Example 92], in assay [1], the pIC50 was 6.70. Besides, in assay [2] (relative to NDP-alpha-MSH), the “% activation functional assay” value is listed as “does not activate; also recorded: no activation”.

Compound `O=C(N[C@H](Cc1ccc(Cl)cc1)C(=O)N1CCC(c2ccccc2CN2CCCCC2=O)CC1)c1cc(=O)c2ccccc2o1` [Example 93] showed a pIC50 in assay [1] of 7.29. For the same compound, the “% activation functional assay” value in assay [2] (relative to NDP-alpha-MSH) was “does not activate; also recorded: no activation”.

Broadly, the pEC50 is −log10 of the EC50, conventionally taken in molar units. Compound `O=C(N[C@H](Cc1ccc(Cl)cc1)C(=O)N1CCC(c2ccccc2CN2CCCC2=O)CC1)c1cc(=O)c2ccccc2o1` [example 2] had a negative logarithm of the IC50 (pIC50) in assay [1] of 7.44. For the same compound, the pEC50 in assay [2] is 5.24. Further, the “% activation functional assay” value in assay [2] (relative to NDP-alpha-MSH) is 43%.

In assay [1], `O=C(N[C@@H](Cc1ccc(Cl)cc1)C(=O)N1CCC(c2ccccc2CN2CCCCCC2=O)CC1)c1cc(=O)c2ccccc2o1` [Example 179] showed a pIC50 of 6.30. Also, the “% activation functional assay” value in assay [2] (relative to NDP-alpha-MSH) was “does not activate; also recorded: no activation”.

Usually pKi stands for the negative decadic logarithm of the Ki, by convention in mol/L. With `CS(=O)(=O)Nc1ccccc1N1CCN(C(=O)[C@@H](Cc2ccc(Cl)cc2)NC(=O)[C@H]2Cc3ccccc3CN2)CC1` [WO03009850 (example 1)], in assay [1], the negative-log IC50 (pIC50) was 6.30. Further, the pEC50 is 5.43 in assay [2]; 6.42 on melanocortin-4 receptor [4] (setting [6]); 7.80 on melanocortin-4 receptor [4] (J. Med. Chem. 2004, 47, 744-755). For the same compound, the “% activation functional assay” value in assay [2] (relative to NDP-alpha-MSH) was determined as 96%. Besides, the “stimulation of melanocortin-4 receptor” value on melanocortin-4 receptor [4] (setting [6]) is 100%. For the same compound, the negative-log Ki (pKi) on melanocortin-4 receptor [5] is 6.66.

The compound `O=C(N[C@H](Cc1ccc(Cl)cc1)C(=O)N1CCC(c2ccccc2CN2CCCCCC2=O)CC1)c1cc(=O)c2ccccc2o1` [Example 180] gave a negative-log IC50 (pIC50) in assay [1] of 7.33. Besides, the “% activation functional assay” value in assay [2] (relative to NDP-alpha-MSH) is on record as “does not activate; also recorded: no activation”.
